Experiment [1] concerns the target T1, DNA repair and recombination protein RAD54-like (Homo sapiens, UniProt Q92698).
T1 sequence (Q92698 whole entry): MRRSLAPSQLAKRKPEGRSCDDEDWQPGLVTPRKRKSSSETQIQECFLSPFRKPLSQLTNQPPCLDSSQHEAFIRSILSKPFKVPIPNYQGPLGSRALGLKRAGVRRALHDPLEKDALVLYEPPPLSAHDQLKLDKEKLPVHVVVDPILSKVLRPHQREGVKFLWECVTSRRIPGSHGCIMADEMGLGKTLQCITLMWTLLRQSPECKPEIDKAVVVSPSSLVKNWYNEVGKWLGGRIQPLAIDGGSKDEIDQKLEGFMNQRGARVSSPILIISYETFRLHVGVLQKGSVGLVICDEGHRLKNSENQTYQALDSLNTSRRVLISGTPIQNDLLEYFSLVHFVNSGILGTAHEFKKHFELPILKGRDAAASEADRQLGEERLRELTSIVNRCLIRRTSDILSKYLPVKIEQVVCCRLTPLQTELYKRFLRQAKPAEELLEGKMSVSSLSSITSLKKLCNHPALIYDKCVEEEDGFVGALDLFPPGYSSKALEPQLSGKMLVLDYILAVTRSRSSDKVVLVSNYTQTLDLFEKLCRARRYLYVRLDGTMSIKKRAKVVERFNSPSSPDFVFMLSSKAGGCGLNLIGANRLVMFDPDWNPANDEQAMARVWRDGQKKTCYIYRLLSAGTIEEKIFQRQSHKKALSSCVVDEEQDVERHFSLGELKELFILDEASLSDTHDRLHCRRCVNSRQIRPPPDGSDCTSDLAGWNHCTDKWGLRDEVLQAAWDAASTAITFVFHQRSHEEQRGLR
Description: RAD54 Holliday junction migration blockers – biochemical, fluorescence, cherry-picked samples, dose series, confirmation (AID 651657). The experiment is classed as functional.

Experiment [2] deals with Beta-galactosidase (Escherichia coli, UniProt Q8VNN2). The experiment in a line: Dose response counterscreen for EBI2 assay utilizing the enzyme, b-galactosidase. The experiment is classed as functional. (In general: A counterscreen serves to expose hits that act by an unwanted route or on another target.)
Beta-galactosidase, sequence (Q8VNN2 whole entry): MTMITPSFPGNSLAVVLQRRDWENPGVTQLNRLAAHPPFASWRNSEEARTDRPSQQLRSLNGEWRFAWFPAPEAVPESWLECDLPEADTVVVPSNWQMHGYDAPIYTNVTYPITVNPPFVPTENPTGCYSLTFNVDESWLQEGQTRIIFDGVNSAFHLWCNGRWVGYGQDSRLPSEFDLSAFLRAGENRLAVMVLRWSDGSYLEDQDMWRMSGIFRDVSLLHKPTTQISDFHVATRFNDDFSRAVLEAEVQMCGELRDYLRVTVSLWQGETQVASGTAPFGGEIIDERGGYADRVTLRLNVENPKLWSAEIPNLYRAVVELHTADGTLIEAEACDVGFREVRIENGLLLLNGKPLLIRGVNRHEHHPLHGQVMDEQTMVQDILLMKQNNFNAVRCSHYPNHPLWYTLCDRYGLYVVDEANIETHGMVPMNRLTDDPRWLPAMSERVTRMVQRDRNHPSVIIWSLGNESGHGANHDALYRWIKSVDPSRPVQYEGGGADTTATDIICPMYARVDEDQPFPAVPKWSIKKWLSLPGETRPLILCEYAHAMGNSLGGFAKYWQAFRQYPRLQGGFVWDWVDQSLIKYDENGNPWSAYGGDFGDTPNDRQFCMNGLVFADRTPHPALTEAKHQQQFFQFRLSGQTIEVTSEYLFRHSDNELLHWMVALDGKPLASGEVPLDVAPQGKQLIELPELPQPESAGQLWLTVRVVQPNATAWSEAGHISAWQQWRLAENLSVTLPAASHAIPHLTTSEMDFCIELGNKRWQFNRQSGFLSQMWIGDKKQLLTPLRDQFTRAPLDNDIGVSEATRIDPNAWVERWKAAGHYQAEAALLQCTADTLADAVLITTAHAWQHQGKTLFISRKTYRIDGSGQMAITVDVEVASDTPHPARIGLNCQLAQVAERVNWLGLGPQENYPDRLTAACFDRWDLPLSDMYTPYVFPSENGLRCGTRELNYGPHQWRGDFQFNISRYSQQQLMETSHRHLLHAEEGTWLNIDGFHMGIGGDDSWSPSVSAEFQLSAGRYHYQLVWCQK
For experiment [3], the target named is T2, Rac GTPase-activating protein 1 (Homo sapiens, UniProt Q9H0H5).
T2 sequence (Q9H0H5 whole entry): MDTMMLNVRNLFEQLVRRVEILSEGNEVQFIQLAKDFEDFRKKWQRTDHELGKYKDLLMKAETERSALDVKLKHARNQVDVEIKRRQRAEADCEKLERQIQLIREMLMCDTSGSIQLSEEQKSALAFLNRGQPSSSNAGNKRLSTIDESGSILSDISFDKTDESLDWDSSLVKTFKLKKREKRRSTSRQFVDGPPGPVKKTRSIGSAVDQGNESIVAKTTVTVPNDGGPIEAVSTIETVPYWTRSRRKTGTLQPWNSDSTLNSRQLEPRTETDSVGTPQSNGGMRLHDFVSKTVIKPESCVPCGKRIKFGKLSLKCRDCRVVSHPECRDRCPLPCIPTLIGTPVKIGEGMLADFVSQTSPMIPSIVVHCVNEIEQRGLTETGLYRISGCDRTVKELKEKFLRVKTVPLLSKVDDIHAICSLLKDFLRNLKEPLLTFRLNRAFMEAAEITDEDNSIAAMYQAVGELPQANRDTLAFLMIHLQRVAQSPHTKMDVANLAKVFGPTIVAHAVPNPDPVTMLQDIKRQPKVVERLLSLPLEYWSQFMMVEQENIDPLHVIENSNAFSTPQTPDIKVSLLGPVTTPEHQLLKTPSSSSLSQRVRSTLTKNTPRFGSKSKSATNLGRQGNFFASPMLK
Description: blockers of MgcRacGAP-driven Rac1 GTP hydrolysis – biochemical, ADP Hunter fluorescence, primary and confirmatory, confirmation (AID 624330). The experiment is classed as functional.

Experiment [4] is described as follows: viability loss in HeLa cells – cytotoxicity control for MgcRacGAP inhibitor project, dose response (AID 624300). The experiment is classed as functional.
Experiment [5] concerns the target T3, Nuclear receptor subfamily 0 group B member 1 (Homo sapiens, UniProt P51843).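 Further: HEK293T cells transfected with SF-1 and DAX-1 plus StAR promoter luciferase reporter.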
T3 sequence (P51843 whole entry): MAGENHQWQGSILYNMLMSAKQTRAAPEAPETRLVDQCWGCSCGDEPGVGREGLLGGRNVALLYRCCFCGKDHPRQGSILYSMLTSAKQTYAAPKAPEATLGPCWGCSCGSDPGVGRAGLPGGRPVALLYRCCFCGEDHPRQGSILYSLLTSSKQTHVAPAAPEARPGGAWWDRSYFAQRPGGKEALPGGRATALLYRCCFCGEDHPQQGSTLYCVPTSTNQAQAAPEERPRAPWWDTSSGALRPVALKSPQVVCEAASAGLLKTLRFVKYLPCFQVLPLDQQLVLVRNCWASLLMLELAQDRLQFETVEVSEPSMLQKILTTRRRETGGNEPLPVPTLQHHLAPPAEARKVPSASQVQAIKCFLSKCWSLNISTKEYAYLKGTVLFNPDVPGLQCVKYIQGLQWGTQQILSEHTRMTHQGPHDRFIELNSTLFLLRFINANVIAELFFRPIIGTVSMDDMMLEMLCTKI
The experiment is classed as functional, cell-based.

The nature of experiment [6]: cells. The experiment is classed as functional, cell-based.
A short description of experiment [7]: cells. The experiment is classed as functional, cell-based. As to conditions: HEK-CNG.
In experiment [8] the target is T4, Galanin receptor type 3 (Homo sapiens, UniProt O60755).
T4 sequence (O60755 whole entry): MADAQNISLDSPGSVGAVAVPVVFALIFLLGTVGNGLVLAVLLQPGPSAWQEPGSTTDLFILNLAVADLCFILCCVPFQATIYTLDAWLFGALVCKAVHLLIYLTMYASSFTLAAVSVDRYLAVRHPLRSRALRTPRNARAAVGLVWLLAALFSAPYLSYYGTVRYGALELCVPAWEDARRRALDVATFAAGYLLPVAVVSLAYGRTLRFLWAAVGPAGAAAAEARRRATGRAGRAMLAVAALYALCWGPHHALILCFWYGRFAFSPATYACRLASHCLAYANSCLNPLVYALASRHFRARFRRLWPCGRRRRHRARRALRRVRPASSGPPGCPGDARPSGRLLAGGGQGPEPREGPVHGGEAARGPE
The experiment in a line: Fluorescence-based cell-based primary high throughput dose response assay to identify antagonists of the Galanin Receptor 3 (GalR3). The experiment is classed as functional.

The nature of experiment [9]: Luminescence Cell-Based Dose Response HTS to Identify Activators of Luciferase Translation or Activity in H4 […] Cells. [Related pubchem assays: 1829 (Project Summary), 1814 (Primary HTS)]. The experiment is classed as functional.
In experiment [10] the test system is H4. The experiment in a line: Luminescence Cell-Based Dose Response HTS to Identify Activators of 5'UTR Stem-Loop Driven Prion Protein mRNA Translation in H4 Neuroglioblastoma Cells. [Related pubchem assays: 1829 (Project Summary), 1814 (Primary HTS)]. The experiment is classed as functional. The following applies: Homo sapiens.
Experiment [11] concerns the target T5, Protein skinhead-1 (Caenorhabditis elegans, UniProt P34707).
T5 sequence (P34707 whole entry): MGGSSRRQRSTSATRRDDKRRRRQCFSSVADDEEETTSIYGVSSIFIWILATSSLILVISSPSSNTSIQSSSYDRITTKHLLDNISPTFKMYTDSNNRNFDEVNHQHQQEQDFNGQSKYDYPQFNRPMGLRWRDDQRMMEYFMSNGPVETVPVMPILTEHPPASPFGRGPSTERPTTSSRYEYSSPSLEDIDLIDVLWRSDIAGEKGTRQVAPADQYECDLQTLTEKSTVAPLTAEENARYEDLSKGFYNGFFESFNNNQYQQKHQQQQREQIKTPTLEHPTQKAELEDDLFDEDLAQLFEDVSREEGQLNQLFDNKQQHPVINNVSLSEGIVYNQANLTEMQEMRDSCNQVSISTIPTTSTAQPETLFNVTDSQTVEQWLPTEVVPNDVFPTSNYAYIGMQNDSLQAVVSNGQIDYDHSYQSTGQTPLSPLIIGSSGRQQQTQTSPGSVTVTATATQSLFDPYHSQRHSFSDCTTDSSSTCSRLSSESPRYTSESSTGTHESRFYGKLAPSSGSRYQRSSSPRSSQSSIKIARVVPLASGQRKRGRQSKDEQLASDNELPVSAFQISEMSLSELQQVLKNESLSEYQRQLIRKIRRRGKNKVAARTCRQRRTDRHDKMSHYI
The experiment is classed as functional.

Experiment [12] can be described thus: Luminescence Cell-Based Dose Confirmation HTS to Identify Activators of 5'UTR Stem-Loop Driven Alpha-Synuclein mRNA Translation in H4 Neuroglioblastoma Cells. [Related pubchem assays: 1829 (Project Summary), 1814 (Primary HTS)]. The experiment is classed as functional.
The nature of experiment [13]: activation of miR-122 Renilla sensor silencing – cell-based, Huh7 psiCHECK-miR122, Renilla luciferase, cherry-picked, dose response (AID 651956).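 Further: huh7 hepatoma cells stably carrying a psiCHECK-2 miR-122 sensor plasmid; renilla luciferase signal reporting endogenous miR-122 activity after 48 h compound exposure.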 The experiment is classed as functional.
The nature of experiment [14]: HGIII-sPLA2 enzyme inhibition potency – biochemical, QFRET, IC50, dose response (AID 743457).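 Further: green fluorescence rise as the enzyme cleaves BODIPY PC-A2 in liposomes.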
For experiment [15], the target named is Induced myeloid leukemia cell differentiation protein Mcl-1 (Homo sapiens, UniProt Q07820). The experiment is classed as functional.
Induced myeloid leukemia cell differentiation protein Mcl-1, sequence (Q07820 whole entry): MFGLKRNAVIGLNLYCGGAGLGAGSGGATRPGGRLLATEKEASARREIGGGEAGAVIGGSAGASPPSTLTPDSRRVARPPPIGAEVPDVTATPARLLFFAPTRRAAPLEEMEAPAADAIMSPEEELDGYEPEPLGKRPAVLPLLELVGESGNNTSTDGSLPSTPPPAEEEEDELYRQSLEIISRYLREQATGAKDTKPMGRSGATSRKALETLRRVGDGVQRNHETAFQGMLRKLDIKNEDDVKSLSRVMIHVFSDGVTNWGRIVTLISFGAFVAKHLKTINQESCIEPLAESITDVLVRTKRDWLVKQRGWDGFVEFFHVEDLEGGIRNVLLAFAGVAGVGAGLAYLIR
The nature of experiment [16]: viability loss in THP-1 monocytes – THP-1 cells, cytotoxicity control for Vif-APOBEC3G degradation inhibitor project, dose response (AID 1117359). The experiment is classed as functional. As to conditions: THP-1.
The target in experiment [17] is T6, Heat shock factor protein 1 (Mus musculus, UniProt P38532).
T6 sequence (P38532 whole entry): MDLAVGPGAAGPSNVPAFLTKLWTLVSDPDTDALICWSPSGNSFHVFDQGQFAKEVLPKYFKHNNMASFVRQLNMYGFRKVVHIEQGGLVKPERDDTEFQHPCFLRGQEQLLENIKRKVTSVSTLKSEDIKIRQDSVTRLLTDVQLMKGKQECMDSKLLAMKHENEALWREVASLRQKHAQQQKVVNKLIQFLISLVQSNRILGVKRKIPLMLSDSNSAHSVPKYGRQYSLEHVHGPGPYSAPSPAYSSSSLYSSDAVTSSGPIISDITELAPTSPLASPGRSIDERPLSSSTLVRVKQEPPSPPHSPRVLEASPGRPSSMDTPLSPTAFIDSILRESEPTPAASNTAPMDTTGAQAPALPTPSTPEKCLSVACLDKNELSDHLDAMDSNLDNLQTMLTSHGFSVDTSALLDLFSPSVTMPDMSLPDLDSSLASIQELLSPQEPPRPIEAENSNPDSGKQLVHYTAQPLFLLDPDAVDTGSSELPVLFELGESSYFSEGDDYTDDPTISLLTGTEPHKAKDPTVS
Description: enhancement of HSF1-driven luciferase signal – cell-based, NIH3T3, luminescence, dose retest, confirmation (AID 435004).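 Further: stress induced by proteasome inhibitor MG132 added 30 min after compound; luciferase reporter driven by HSF1 response element in NIH3T3 cells; actives raise luminescence as potentiators of the MG132 stress response.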 The experiment is classed as functional.

Experiment [18] in a line: A549 cell cytotoxicity, dose response, cytotoxicity control, plate reader, cherry-pick, antagonist series (AID 743412). The experiment is classed as functional, cell-based.
A short description of experiment [19]: blockade of melanocortin 4 receptor signaling – cell-based, plate reader, cherry pick, counter-screen for LGR2 antagonist project, dose response (AID 743444).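 Further: transfected HEK 293 cells stimulated with alpha-MSH peptide; potency of inhibitors of the alpha-MSH evoked signal.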 The experiment is classed as functional.
The nature of experiment [20]: blockers of bursicon-stimulated LGR2 cAMP reporter – cell-based, HEK293, CRE-luciferase reporter, cherry pick, set 2, dose response (AID 743343).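 Further: transfected cells were stimulated with diluted bursicon conditioned medium after compound addition.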 The experiment is classed as functional.
The nature of experiment [21]: toxicity toward HepG2 liver cells – cell-based, plate reader, cherry-pick, antagonist series, cytotoxicity control, dose response (AID 743416). The experiment is classed as functional.

Structures are written as SMILES. Active and inactive are the calls of the source. Some results are limits rather than exact numbers.

`Nc1ccc(-c2nc3c(ccc4ccccc43)[nH]2)cc1`: the AC50 in experiment [1] is 92.4 µM (active).

Consider `C=CCc1cccc(CNc2nc3ccccc3n2CCN2CCOCC2)c1O`, for which, in experiment [2], the IC50 is > 80 µM (inactive).

As to `C/C(=N\Nc1ccc(S(=O)(=O)N2CCCCC2)cn1)c1ccc(O)cc1`, in [3], the IC50 is 23.4 µM (active). The CC50 in experiment [4] was 100 µM (active).

In the case of `COc1ccc(-c2cc(NC=O)c3ncc(-c4cc(OC)c(OC)c(OC)c4)n3c2)cc1`, the IC50 in experiment [5] and in experiment [6] was > 67.6 µM (inactive) in each case.

Turning to `CC(C)NC(=O)NC(=O)COC(=O)Cc1c(F)cccc1Cl`, the EC50 in experiment [7] is > 29.9 µM (inactive). In experiment [8], the IC50 was > 29.9 µM (inactive).

With `O=C(c1cc(COc2ccc(F)cc2Cl)on1)N1C[C@H]2C[C@H]3C[C@@H](C2)C[C@H]1C3`, the EC50 is 26.2 µM (active) in experiment [9], 47.6 µM (active) in experiment [10] and 0.917 µM (active) in [12]. Moreover, the figures for the IC50 in [5], in experiment [11] and in experiment [6] were > 67.5 µM (inactive), > 100 µM (inactive) and > 67.5 µM (inactive), respectively.

For `Nc1c(C(=O)NCCN2CCOCC2)c2nc3ccccc3nc2n1-c1ccc2c(c1)OCO2`, in experiment [1], the AC50 was 37.3 µM (active).

As to `CN1C(=O)c2cc(NC(=O)Cc3ccccc3)ccc2OC[C@@H]2O[C@@H](CC(=O)NCc3ccc(Cl)cc3)CC[C@H]21`, the AC50 in [13] was 41.4 µM (active).

`CN(C)c1ccc(NC(=O)c2cccc(C(=O)Nc3ccc(N(C)C)cc3)n2)cc1`: the figures for the IC50 in [14] and in [15] were 40 µM (inactive) and 3.33 µM (active), respectively.

Turning to `S=C(N/N=C/c1cccs1)NC1CC2CCC1C2` (stereo not drawn), in [16], the cytotoxic concentration (CC50) was > 40 µM (active). The IC50 in experiment [14] was > 122 µM (inactive). The EC50 in experiment [17] was > 260 µM (inactive).

In the case of `O=C(/C=C/c1ccc(OCCCF)cc1)N1CCN(Cc2ccccc2)CC1`, in experiment [2], the IC50 is > 80 µM (inactive).

`COc1ccc(C(=O)Nc2nnc(SCC(=O)NCc3ccco3)s2)c(OC)c1`: the AC50 in experiment [18] is > 52 µM (inactive); in experiment [19], 4.64 µM (active); in experiment [20], 6.14 µM (active); in experiment [21] it was > 52 µM (inactive). The IC50 in experiment [5] and in experiment [6] was > 67.5 µM (inactive) throughout.

One may read the AC50 as the midpoint of the concentration-response curve, whichever way the signal moves. What is called IC50 is the midpoint of a concentration-inhibition curve. By CC50 is commonly meant the concentration at which the toxic effect on the cells reaches its halfway point. The EC50 is the concentration that produces a half-maximal response.

The record behind these values is ChEMBL document CHEMBL1201862, “PubChem BioAssay data set” (2004).
